# Measurements published in patent US20050124554A1, “Spermidine derivatives for the treatment of chronic neurodegenerative diseases” (priority 2002, published 2005).
# Columns and labels:
# [1] = system: organotypic hippocampal slice cultures (CA1 pyramidal cell layer); test: Experimental ischaemia (oxygen glucose deprivation), cell death by PI fluorescence; assay type: cell-based, Wistar rat
# Description: Organotypic hippocampal slice cultures were prepared according to established methods (Pringle et al. (1997), Brain Res., 755, 36-46). In brief, Wistar rat pups (8-11 days old) were decapitated and the hippocampus rapidly dissected into ice-cold Gey's balanced salt solution (Gibco Life Technologies, Paisley, UK) supplemented with 4.5 mg ml^−1 glucose. Slices were separated and plated onto Millicell CM culture inserts (4 per well) and maintained at 37° C. and 5% CO2 for 14 days. Maintenance medium consisted of 25% heat-inactivated horse serum, 25% Hank's balanced salt solution (HBSS) and 50% minimum essential medium with added Earle's salts MM, ICN Biomedicals, Basingstoke, UK) supplemented with 1 mM glutamine and 4.5 mg ml^−1 glucose. Medium was changed every 3-4 days.
# Experimental ischaemia or oxygen glucose deprivation was performed as described previously (Pringle et al. (1996), Stroke, 27, 2124-2130). Briefly, cultures were transferred to serum-free media (SFM, 75% MEM, 25% HDSS supplemented with 1 mM glutamine and 4.5 mg ml^−1 glucose) containing 5 μg ml^−1 of the fluorescent exclusion dye propidium iodide (PI). Cultures were allowed to equilibrate in SFM for 30 min prior to imaging, with or without L-Arg3,4. PI fluorescence was detected using a Leica inverted microscope as described below. Any cultures in which PI fluorescence was detected at this stage were excluded from further study. Ischaemia was induced by transferring cultures to glucose-free media (MEM with Earl's salts without glucose and supplemented with 1 mM glutamine) saturated with 95% N2 and 5% CO2. Culture plates (without lids) were then sealed into an airtight chamber (Billups-Rothenberg, Del Mar, Calif.) gassed with 95% N2 and 5% CO2 at 10 L min^−1 for 10 min before being sealed and placed at 37° C. for 50 min. At the end of the ischaemia, cultures were returned to normoxic SFM+PI, with or without compound at the indicated concentrations, and placed back in the incubator for 24 h.
# Neuronal damage was assessed as described previously (Pringle et al. (1996), Stroke, 27, 2124-2130; Pringle et al. (1997), Brain Res., 755, 36-46). Light transmission images were captured prior to the induction of injury, and PI fluorescence images recorded at the end of the 24 h post-injury recovery period. All images were captured on an inverted Leica DM-IRBE epifluorescence microscope (Milton Keynes, UK) fitted with a 100 W Hg lamp and standard rhodamine optics (excitation 510-560 nm; dichroic mirror […]; emission>590 nm). Images were acquired with a 5×NA 0.12 lens and a cooled Hamamatsu digital camera and digitised at 12 bit resolution for analysis in OpenLab 2.1 (Improvision, Coventry, UK) running on a Macintosh G4/400. The area of the CA1 or CA3 cell layer was determined from the transmission image, and the area of PI fluorescence in that cell layers was measured using the density slice function within OpenLab. Neuronal damage was expressed as a percentage of the area in which PI fluorescence was detected above threshold within a cell layer divided by the total area of that cell layer. Protection was calculated as the difference between the damage for a given well and the average damage in untreated controls divided by the average damage in untreated controls. Groups were compared against corresponding control groups using the two tailed Student's t-test with significance indicated as * for P<0.05, and ** for P<0.01. Data is presented as mean±s.e.mean.
# [2] = system: acute hippocampal slices (CA1 pyramidal cell layer, Schaffer collateral stimulation); test: Electrophysiology: evoked field responses / synaptic transmission; set-up: species or system Sprague-Dawley rats
# From the text: All animal procedures to produce acute hippocampal slices were approved by the Home Office. Male, 250 g, Sprague-Dawley rats were deeply anaesthetised with halothane and decapitated. The brain was quickly removed, and the hippocampi dissected out and then cut into 300 μm thick transverse slices on a vibratome (Leica, Milton Keynes, UK) in cold cutting solution (in mM: 189 sucrose, 2.5 KCl, 26 NaHCO3, 1.2 NaH2PO4, 10 glucose, 5 MgCl2, 0.1 CaCl2) equilibrated with 5% CO2, 95% O2. Slices were transferred to aCSF (in mM: 10 glucose, 125 NaCl, 5 KCl, 26 NaHCO3, 1 MgCl2, 1.25 NaH2PO4, 2 CaCl2, 10 sucrose) at room temperature, bubbled with 5% CO2 and 95% O2, for at least 1 h before use.
# Slices were then transferred to a submerged perfusion chamber (2 ml volume) for the electrophysiological recordings and were perfused at 10 ml min^−1 at 25° C. with aCSF equilibrated with 5% CO2 and 95% O2, and allowed to equilibrate for 1 h before manipulations were started. Experimental compounds were applied by bath perfusion. L-Arg3,4 was applied at 300 μM and DNQX was applied at 10 μM final concentration. DNQX was diluted from a 40 mM stock in DMSO (final DMSO of 0.025%). The Schaffer collaterals of CA3 were stimulated at voltages from 0 to 30 V with a constant voltage stimulator (Digitimer, Hertfordshire, UK) via a twisted pair stimulating electrode of polyimide coated stainless steel wire (Plastics One, Roanoke, Va.). Field potential responses were recorded with an Axopatch 200B amplifier (Axon Instruments, Foster City, Calif.) in the fast current clamp mode via a 2M KCl filled glass electrode (2-5 MQ) in the CA1 pyramidal cell layer. Responses were filtered at 2 kHz, digitised at 20 kHz with a Digidata 1320A (Axon Instruments), and stored onto hard disk with Clampex 8.1 software (Axon Instruments) running on a Dell Pentium III PC. Data was analysed in Clampfit 8.1 (Axon Instruments).
# Stimulus-response (S/R) curves were generated from stimuli from 0 to 30 V in 2 V increments. Bath perfusion of 300 μM L-Arg3,4 in aCSF was applied for 10 min with a sub-maximal stimulus applied every minute to monitor synaptic transmission. A second S/R curve was generated before the perfusion was switched back to plain aCSF. A sub-maximal stimulus was applied every minute during the 15 min wash period after which a third SIR curve was generated. Perfusion of 10 μM DNQX was then started until the response to the sub-maximal stimulus was completely eliminated which always occurred within 10 min. […] In Clampfit, S/R curves were fit to a sigmoidal function of the form: [formula] where R is the magnitude of the evoked response, Rmax is the maximum response, V50 is the voltage which produces a half maximal response, S is the stimulus voltage, and m is proportional to the slope of the linear region of the sigmoid. Data was compared by one way ANOVA.
# [3] = 300 μM applied 0 min post-injury
# [4] = 300 μM applied 10 min post-injury
# [5] = 300 μM applied 60 min post-injury
# [6] = during bath perfusion of 300 μM, n=6
structure (smiles),measurement,setting,value
"N=C(N)NCCCC(N)C(=O)NCCCNCCCCN [L-Arg3,4, L-arginyl-3,4-spermidine]",damage,"[1]; 300 nM post-injury, dose study",did not reduce damage
same,damage,"[1]; 3 μM post-injury, dose study",19±5%
same,protection,"[1]; 3 μM post-injury, dose study",43%
same,damage,"[1]; 30 μM post-injury, dose study",11±3%
same,protection,"[1]; 30 μM post-injury, dose study",67%
same,delay of administration post-ischaemia at which still neuroprotective (therapeutic window),[1]; 300 μM,up to 60 min
same,damage,[1]; [3],23±3%
same,protection,[1]; [3],40%
same,damage,[1]; [4],15±2%
same,protection,[1]; [4],59%
same,damage,[1]; 300 μM applied 30 min post-injury,28±4%
same,protection,"[1]; 300 μM applied 30 min post-injury, not statistically significant",26%
same,damage,[1]; [5],26±3%
same,protection,[1]; [5],30%
same,damage,"[1]; 300 μM post-injury, dose study",23±3%
same,protection,"[1]; 300 μM post-injury, dose study",32%
same,protection,"[1]; 300 μM pre-, during, and post-ischaemia (PDP)",39%
same,neurodegeneration (PI area as % of cell layer),"[1]; 300 μM pre-, during, and post-ischaemia (PDP), 1 h ischaemia, 24 h",23±4%
same,effect on evoked responses,"[2]; bath application, L-Arg3,4 300 μM, DNQX 10 μM",had no effect on evoked responses
same,"Rmax (maximum evoked response, S/R curve fit)",[2]; [6],2.71 ± 1.31 mV
same,V50 (voltage producing half maximal response),[2]; [6],15.98 ± 5.12 V
same,m (proportional to slope of sigmoid),[2]; [6],0.59 ± 0.48
